Test system: Fusarium virguliforme
Assay: Growth chamber soybean sudden death syndrome seed treatment test, soil inoculated with F. virguliforme spores, visual disease severity rating
Format: in vivo
Settings: for reduction in disease severity: seed treatment, versus control; for Sudden death syndrome Disease Severity (1-9): seed treatment (thiabendazole 5 g ai/100 kg seed; 2.5 g fludioxonil + 3.75 g mefenoxam/100 kg seed), averaged across five growth chamber runs, Njiti et al. scale
Text: Soybean cultivars NK-529-J6 and NK-533-T4 where used for testing. Cultivar NK-529-J6 is labeled as partially resistant to SDS and cultivar NK-533-T4 is labeled susceptible to SDS (Syngenta Seeds, Minneapolis, Minn.). Thiabendazole fungicide seed treatment was applied to both cultivars at a rate of 5 g a.i./100 kg seed. A mefenoxam and fludioxonil combination fungicide seed treatment was also applied at a rate of 3.75 g a.i./100 kg seed and 2.5 g a.i./100kg seed, respectively. Three pathogenic isolates of F. virguliforme (Scherm et al., 1978) were used to inoculate grain sorghum (Sorghum bicolor (L.)) following the methods of Farris Neto et al. (2006). Isolates were grown on one third strength Difco Potato Dextrose Agar (PDA) growth medium. After 18 days, isolate growth on the PDA was divided into thirds and placed into a bag containing 2.27 kg of sorghum seed and allowed to incubate at room temperature for 15 days. Five experiments were conducted in a growth chamber. Each experiment was a randomized complete block design with eight replications. A 1:1 ratio of soil and sand medium was mixed together thoroughly, and steam sterilized at 121° C. for one hour. Upon sterilization of the soil medium 150 g of soil and 2.25 g of yellow cornmeal was weighed and mixed together for each conetainer. A spore suspension was prepared using 17 to 20 day old isolates of F. virguliforme grown on PDA media. Each isolate was aseptically flooded with sterilized, de-ionized water and scraped from the PDA plates causing the release of F. virguliforme spores. Each isolate was then strained through cheesecloth and mixed together to produce the spore suspension. Spore concentrations were determined using a hemacytometer, and concentrations were adjusted to produce 10 000 spores g soil^−1. After the spore concentration was determined the spore suspension was diluted to a volume of 13 ml of spore suspension per conetainer. The soil was then inoculated with the diluted spore suspension (Gongora-Canul and Leandro, 2007). Once the soil was inoculated, conetainers were filled level full with the inoculated soil, and then planted with two seeds of each variety by seed treatment combination (after emergence, thinned to one plant per conetainer) and placed in the growth chamber. Growth chambers were set at 17° C. for one week then changed to 24° C., and maintained for the remainder of the experiment. Growth chambers were set to 17° C. to help slow the germination of the soybean and therefore increase the probability for infection of F. virguliforme to take place (Gongora-Canul and Leandro, 2008). […]
Data collection for the growth chambers consisted of visual disease ratings of SDS symptom severity following the methods of Njiti et al. (1996). […] Disease incidence was recorded as a presence/absence rating.

## c1ccc2[nH]c(-c3cscn3)nc2c1 [Thiabendazole, thiabendazole]
Soybean cultivar NK-533-T4
  reduction in disease severity: 35%
Soybean cultivar NK-S29-J6 (partially resistant to SDS)
  Sudden death syndrome Disease Severity (1-9): 0.96
Soybean cultivar NK-S29-J6 (printed NK-29-J6)
  reduction in disease severity: 25%
Soybean cultivar NK-S33-T4 (SDS susceptible), LSD (0.05) 0.39
  Sudden death syndrome Disease Severity (1-9): 1.08
